Reference: the NIST ThermoML archive (doi:10.1016/j.jct.2012.11.007)

Assay: mn = molality of the nth substance listed, in mol/kg
Conditions: 101 kPa, Liquid; for mass density: Vibrating tube method; for speed of sound: Pulse-echo method

CCNC(N)=O [ethylurea] + O
Conditions | mass density, 288.15 K [kg/m3] | mass density, 293.15 K [kg/m3] | mass density, 298.15 K [kg/m3] | mass density, 303.15 K [kg/m3] | mass density, 308.15 K [kg/m3] | speed of sound, 298.15 K [m/s]
m1 = 0.06285 | 999.725 | 998.807 | 997.629 | 996.213 | 994.58 | 1500
m1 = 0.1203 | 1000.29 | 999.358 | 998.163 | 996.73 | 995.083 | 1503.1
m1 = 0.179 | 1000.88 | 999.919 | 998.707 | 997.258 | 995.602 | 1506.2
m1 = 0.2358 | 1001.44 | 1000.47 | 999.234 | 997.769 | 996.09 | 1509.1
m1 = 0.3016 | 1002.09 | 1001.09 | 999.839 | 998.357 | 996.661 | 1512.5

CNC(N)=O [methylurea] + O
Conditions | mass density, 288.15 K [kg/m3] | mass density, 293.15 K [kg/m3] | mass density, 298.15 K [kg/m3] | mass density, 303.15 K [kg/m3] | mass density, 308.15 K [kg/m3] | speed of sound, 298.15 K [m/s]
m1 = 0.06094 | 999.856 | 998.94 | 997.762 | 996.348 | 994.718 | 1499.1
m1 = 0.1225 | 1000.62 | 999.688 | 998.491 | 997.062 | 995.418 | 1501.5
m1 = 0.1837 | 1001.38 | 1000.42 | 999.21 | 997.766 | 996.108 | 1503.9
m1 = 0.2452 | 1002.13 | 1001.16 | 999.928 | 998.469 | 996.799 | 1506.3
m1 = 0.3076 | 1002.89 | 1001.9 | 1000.66 | 999.182 | 997.498 | 1508.7

NC(N)=O [urea] + O
Conditions | mass density, 288.15 K [kg/m3] | mass density, 293.15 K [kg/m3] | mass density, 298.15 K [kg/m3] | mass density, 303.15 K [kg/m3] | mass density, 308.15 K [kg/m3] | speed of sound, 298.15 K [m/s]
m1 = 0.06521 | 1000.18 | 999.268 | 998.076 | 996.664 | 995.029 | 1498.5
m1 = 0.1233 | 1001.14 | 1000.2 | 998.994 | 997.564 | 995.915 | 1500
m1 = 0.1812 | 1002.09 | 1001.13 | 999.906 | 998.455 | 996.792 | 1501.5
m1 = 0.2403 | 1003.05 | 1002.07 | 1000.83 | 999.361 | 997.684 | 1503.1
m1 = 0.3004 | 1004.03 | 1003.02 | 1001.76 | 1000.28 | 998.584 | 1504.6
